Molecules are shown by their SMILES.

The results in this text go back to patent US9050345B2, “Pyrrolotriazines as potassium ion channel inhibitors” (BRISTOL-MYERS SQUIBB COMPANY, priority 2013, dated 2015).

For one assay, the target named is T1, human KV 1.5 (IKur) (Homo sapiens, UniProt P22460).
T1 construct: expressed in transfected cells
T1 sequence (P22460 whole entry): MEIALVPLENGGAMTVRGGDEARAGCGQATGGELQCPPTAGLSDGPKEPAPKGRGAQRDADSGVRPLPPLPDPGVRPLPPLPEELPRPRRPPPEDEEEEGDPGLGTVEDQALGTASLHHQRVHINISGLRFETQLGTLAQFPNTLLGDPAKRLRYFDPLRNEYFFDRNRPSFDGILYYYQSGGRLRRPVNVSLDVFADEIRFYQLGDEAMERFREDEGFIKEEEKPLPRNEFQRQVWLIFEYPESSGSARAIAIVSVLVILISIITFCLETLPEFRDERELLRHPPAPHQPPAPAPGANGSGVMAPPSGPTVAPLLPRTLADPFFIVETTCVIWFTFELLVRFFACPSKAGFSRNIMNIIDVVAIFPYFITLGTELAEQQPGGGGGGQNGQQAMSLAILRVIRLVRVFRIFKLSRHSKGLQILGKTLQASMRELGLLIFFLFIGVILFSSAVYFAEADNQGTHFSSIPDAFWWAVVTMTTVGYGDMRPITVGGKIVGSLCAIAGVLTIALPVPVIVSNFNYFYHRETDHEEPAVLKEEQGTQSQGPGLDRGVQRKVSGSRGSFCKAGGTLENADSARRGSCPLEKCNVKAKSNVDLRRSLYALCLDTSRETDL
Description: block of IKur current in patch clamped L-929 cells expressing human Kv1.5. Conditions: 0.3 μM; patch clamped mammalian L-929 cells stably expressing human Kv1.5. Type of assay: cell-based. The source says: Assays to determine the degree of activity of a compound as an IKur inhibitor are well known in the art and are described in references such as J. Gen. Physiol., 101(4):513-543 (April 1993), and Br. J. Pharmacol., 115(2):267-274 (May 1995).
Synders, D. J. et al., “A rapidly activating and slowly inactivating potassium channel cloned from human heart: functional analysis after stable mammalian cell culture expression”, J. Gen. Physiol., 101:513-543 (1993). • 2. Zhou, Z. et al., “Block of HERG potassium channels by the antihistamine astemizole and its metabolites desmethylastemizole and norastemizole”, J. Cardiovasc. Electrophysiol., 10(6):836-843 (1999).
In general terms: In patch-clamp work, channel activity is measured electrically.
With `OCC(O)c1cncc(-c2nc(NCc3ccccc3)c3c(-c4ccccc4)ccn3n2)c1` (centres unmarked) [Example 14, 1-(5-(4-(Benzylamino)-5-phenylpyrrolo[1,2-f][1,2,4]triazin-2-yl)pyridin-3-yl)ethane-1,2-diol], the “KV1_5% Inh L929 @0.3 μM” value was found to be 90.60%.
For `OCC(O)c1nc(NCc2ccccc2)c2c(-c3ccccc3)ccn2n1` (centres unmarked) [Example 18, 1-(4-(Benzylamino)-5-phenylpyrrolo[1,2-f][1,2,4]triazin-2-yl)ethane-1,2-diol], the “KV1_5% Inh L929 @0.3 μM” value is 47.37%.
`CC(O)c1cncc(-c2nc(NCc3ccccc3)c3c(-c4ccccc4)ccn3n2)c1` (centres unmarked) [Example 21, 1-(5-(4-(Benzylamino)-5-phenylpyrrolo[1,2-f][1,2,4]triazin-2-yl)pyridin-3-yl)ethanol]: the “KV1_5% Inh L929 @0.3 μM” value stood at 96.63%.
On the same count and under the same terms, for `NS(=O)(=O)c1cncc(-c2nc(NC(CO)c3ccccn3)c3c(-c4ccccc4)ccn3n2)c1` (centres unmarked) [Example 33, 5-(4-((2-Hydroxy-1-(pyridin-2-yl)ethyl)amino)-5-phenylpyrrolo[2,1-f][1,2,4]triazin-2-yl)pyridine-3-sulfonamide] the value was 95.01%.
As for `NS(=O)(=O)CCc1cncc(-c2nc(NCc3ccccn3)c3c(-c4ccccc4)ccn3n2)c1` [Example 38, 2-(5-(5-Phenyl-4-(pyridin-2-ylmethylamino)pyrrolo[1,2-f][1,2,4]triazin-2-yl)pyridin-3-yl)ethanesulfonamide], the “KV1_5% Inh L929 @0.3 μM” value was 97.45%.

Still in this assay, the particulars now being: L929, 0.3 μM; patch clamped mammalian L-929 cells stably expressing human Kv1.5; read-out: KV1_5% Inh L929 @0.3 μM.
For `c1ccc(CNc2nc(-c3cncc(-c4nnn[nH]4)c3)nn3ccc(-c4ccccc4)c23)cc1` [Example 11, 2-(5-(1H-Tetrazol-5-yl)pyridin-3-yl)-N-benzyl-5-phenylpyrrolo[1,2-f][1,2,4]triazin-4-amine], the inhibition at 0.3 µM was 93.4%.
Still for that read-out and setting: the result for `O=C(O)c1cncc(-c2nc(NCc3ccccc3)c3c(-c4ccccc4)ccn3n2)c1` [Example 12, 5-(4-(Benzylamino)-5-phenylpyrrolo[1,2-f][1,2,4]triazin-2-yl)nicotinic acid] reads 88.2%; that for `NC(=O)c1cncc(-c2nc(NCc3ccccc3)c3c(-c4ccccc4)ccn3n2)c1` [Example 13, 5-(4-(Benzylamino)-5-phenylpyrrolo[1,2-f][1,2,4]triazin-2-yl)nicotinamide], 95.9%.
Same read-out and setting: for `OCC(O)c1cncc(-c2nc(NCc3ccccc3)c3c(-c4ccccc4)ccn3n2)c1` (centres unmarked) [Example 14, 1-(5-(4-(Benzylamino)-5-phenylpyrrolo[1,2-f][1,2,4]triazin-2-yl)pyridin-3-yl)ethane-1,2-diol] the value was 95%; for `NS(=O)(=O)c1cncc(-c2nc(NCc3ccccc3)c3c(-c4ccccc4)ccn3n2)n1` [Example 15, 6-(4-(Benzylamino)-5-phenylpyrrolo[1,2-f][1,2,4]triazin-2-yl)pyrazine-2-sulfonamide], 95.5%.
On the same count and under the same terms, the result for `NS(=O)(=O)c1cc(-c2nc(NCc3ccccc3)c3c(-c4ccccc4)ccn3n2)cnc1O` [Example 16, 5-(4-(Benzylamino)-5-phenylpyrrolo[1,2-f][1,2,4]triazin-2-yl)-2-hydroxypyridine-3-sulfonamide] reads 91.1%.
Turning to `CC(C)(O)c1cncc(-c2nc(NCc3ccccc3)c3c(-c4ccccc4)ccn3n2)c1` [Example 17, 2-(5-(4-(Benzylamino)-5-phenylpyrrolo[1,2-f][1,2,4]triazin-2-yl)pyridin-3-yl)propan-2-ol], the inhibition at 0.3 µM was 92.4%.
As to `OCC(O)c1nc(NCc2ccccc2)c2c(-c3ccccc3)ccn2n1` (centres unmarked) [Example 18, 1-(4-(Benzylamino)-5-phenylpyrrolo[1,2-f][1,2,4]triazin-2-yl)ethane-1,2-diol], the inhibition at 0.3 µM was found to be 40.9%.
Still for that read-out and setting: for `O=C(O)CCc1cncc(-c2nc(NCc3ccccc3)c3c(-c4ccccc4)ccn3n2)c1` [Example 19, 3-(5-(4-(Benzylamino)-5-phenylpyrrolo[1,2-f][1,2,4]triazin-2-yl)pyridin-3-yl)propanoic acid] the value was 91.3%; for `OCc1cncc(-c2nc(NCc3ccccc3)c3c(-c4ccccc4)ccn3n2)c1` [Example 20, (5-(4-(Benzylamino)-5-phenylpyrrolo[1,2-f][1,2,4]triazin-2-yl)pyridin-3-yl)methanol], 96.6%; for `CC(O)c1cncc(-c2nc(NCc3ccccc3)c3c(-c4ccccc4)ccn3n2)c1` (centres unmarked) [Example 21, 1-(5-(4-(Benzylamino)-5-phenylpyrrolo[1,2-f][1,2,4]triazin-2-yl)pyridin-3-yl)ethanol], 93.2%.
As for `COC(=O)C1CCCN1C(=O)c1cncc(-c2nc(NCc3ccccc3)c3c(-c4ccccc4)ccn3n2)c1` (centres unmarked) [Example 22, Methyl 1-(5-(4-(benzylamino)-5-phenylpyrrolo[1,2-f][1,2,4]triazin-2-yl)nicotinoyl)pyrrolidine-2-carboxylate], the inhibition at 0.3 µM came to 95.1%.
In the case of `NS(=O)(=O)c1cncc(-c2nc(NCCOc3cnccn3)c3c(-c4ccccc4)ccn3n2)c1` [Example 23, 5-(5-Phenyl-4-((2-(pyrazin-2-yloxy)ethyl)amino)pyrrolo[2,1-f][1,2,4]triazin-2-yl)pyridine-3-sulfonamide], the inhibition at 0.3 µM was 91.6%.
With `OCC(CO)c1cncc(-c2nc(NCc3ccccc3)c3c(-c4ccccc4)ccn3n2)c1` [Example 24, 2-(5-(4-(Benzylamino)-5-phenylpyrrolo[1,2-f][1,2,4]triazin-2-yl)pyridin-3-yl)propane-1,3-diol], the inhibition at 0.3 µM is 63.5%.
Regarding `NC(=O)Nc1cncc(-c2nc(NCc3ccccn3)c3c(-c4ccccc4)ccn3n2)c1` [Example 25, 1-(5-(5-Phenyl-4-(pyridin-2-ylmethylamino)pyrrolo[1,2-f][1,2,4]triazin-2-yl)pyridin-3-yl)urea], the inhibition at 0.3 µM is 96.8%.
Regarding `CC(=O)Nc1ccc(-c2nc(NCc3ccccn3)c3c(-c4ccccc4)ccn3n2)cc1` [Example 26, N-(4-(5-Phenyl-4-(pyridin-2-ylmethylamino)pyrrolo[1,2-f][1,2,4]triazin-2-yl)phenyl)acetamide], the inhibition at 0.3 µM was found to be 94.5%.
The same measure, in the same setting: the result for `CS(=O)(=O)Nc1cccc(NC(=O)c2nc(NCc3ccccc3)c3c(-c4ccccc4)ccn3n2)c1` [Example 27, 4-(Benzylamino)-N-(3-(methylsulfonamido)phenyl)-5-phenylpyrrolo[1,2-f][1,2,4]triazine-2-carboxamide] reads 93.2%; that for `NC(=O)CNS(=O)(=O)c1cncc(-c2nc(NCc3ccccn3)c3c(-c4ccccc4)ccn3n2)c1` [Example 28, 2-(5-(5-Phenyl-4-(pyridin-2-ylmethylamino)pyrrolo[1,2-f][1,2,4]triazin-2-yl)pyridine-3-sulfonamido)acetamide], 97.5%.
With `NC(=O)CCC(=O)Nc1cncc(-c2nc(NCc3ccccn3)c3c(-c4ccccc4)ccn3n2)c1` [Example 30, N1-(5-(5-Phenyl-4-(pyridin-2-ylmethylamino)pyrrolo[1,2-f][1,2,4]triazin-2-yl)pyridin-3-yl)succinamide], the inhibition at 0.3 µM worked out at 96.3%.
Take `NC(=O)C(=O)Nc1cncc(-c2nc(NCc3ccccn3)c3c(-c4ccccc4)ccn3n2)c1` [Example 31, N1-(5-(5-Phenyl-4-(pyridin-2-ylmethylamino)pyrrolo[1,2-f][1,2,4]triazin-2-yl)pyridin-3-yl)oxalamide]: the inhibition at 0.3 µM came out at 98.6%.
The same measure, in the same setting: the result for `Cc1nc(CNc2nc(-c3cncc(S(N)(=O)=O)c3)nn3ccc(-c4ccccc4)c23)cs1` [Example 32, 5-(4-((2-Methylthiazol-4-yl)methylamino)-5-phenylpyrrolo[1,2-f][1,2,4]triazin-2-yl)pyridine-3-sulfonamide] reads 99.3%.
Same read-out and setting: the result for `NS(=O)(=O)c1cncc(-c2nc(NC(CO)c3ccccn3)c3c(-c4ccccc4)ccn3n2)c1` (centres unmarked) [Example 33, 5-(4-((2-Hydroxy-1-(pyridin-2-yl)ethyl)amino)-5-phenylpyrrolo[2,1-f][1,2,4]triazin-2-yl)pyridine-3-sulfonamide] reads 87.8%; that for `CC(C)(C)OC(=O)NC1(c2nc(NCc3ccccn3)c3c(-c4ccccc4)ccn3n2)CC1` [Example 34, tert-Butyl 1-(5-phenyl-4-(pyridin-2-ylmethylamino)pyrrolo[1,2-f][1,2,4]triazin-2-yl)cyclopropylcarbamate], 97.3%.
`COC(=O)NC1(c2nc(NCc3ccccn3)c3c(-c4ccccc4)ccn3n2)CC1` [Example 35, Methyl 1-(5-phenyl-4-(pyridin-2-ylmethylamino)pyrrolo[1,2-f][1,2,4]triazin-2-yl)cyclopropylcarbamate]: the inhibition at 0.3 µM worked out at 92.8%.
Regarding `CC(=O)NC1(c2nc(NCc3ccccn3)c3c(-c4ccccc4)ccn3n2)CC1` [Example 36, N-(1-(5-Phenyl-4-(pyridin-2-ylmethylamino)pyrrolo[1,2-f][1,2,4]triazin-2-yl)cyclopropyl)acetamide], the inhibition at 0.3 µM was determined as 46%.
For the molecule `CS(=O)(=O)NC1(c2nc(NCc3ccccn3)c3c(-c4ccccc4)ccn3n2)CC1` [Example 37, N-(1-(5-Phenyl-4-(pyridin-2-ylmethylamino)pyrrolo[1,2-f][1,2,4]triazin-2-yl)cyclopropyl)methanesulfonamide], the inhibition at 0.3 µM was 98.6%.
As to `NS(=O)(=O)c1cc(-c2nc(NCc3ccccn3)c3c(-c4ccccc4)ccn3n2)cnc1C(F)F` [Example 39, 2-(Difluoromethyl)-5-(5-phenyl-4-(pyridin-2-ylmethylamino)pyrrolo[1,2-f][1,2,4]triazin-2-yl)pyridine-3-sulfonamide], the inhibition at 0.3 µM came out at 97.1%.
On to `COc1ncc(-c2nc(N3Cc4cccnc4C3)c3c(-c4ccccc4)ccn3n2)cc1S(N)(=O)=O` [Example 40, 2-Methoxy-5-(5-phenyl-4-(5H-pyrrolo[3,4-b]pyridin-6(7H)-yl)pyrrolo[1,2-f][1,2,4]triazin-2-yl)pyridine-3-sulfonamide], for which the inhibition at 0.3 µM came out at 40.4%.
On the same count and under the same terms, the result for `CC(C)Oc1ncc(-c2nc(NCc3ccccn3)c3c(-c4ccccc4)ccn3n2)cc1S(N)(=O)=O` [Example 41, 2-Isopropoxy-5-(5-phenyl-4-((pyridin-2-ylmethyl)amino)pyrrolo[2,1-f][1,2,4]triazin-2-yl)pyridine-3-sulfonamide] reads 95.1%; that for `CC(=O)Nc1cncc(-c2nc(NCc3ccccn3)c3c(-c4ccccc4)ccn3n2)n1` [Example 42, N-(6-(5-Phenyl-4-(pyridin-2-ylmethylamino)pyrrolo[1,2-f][1,2,4]triazin-2-yl)pyrazin-2-yl)acetamide], 99.4%.
